# Reference: patent US8946302B2, “Selective sigma-1 receptor ligands” (Wisconsin Alumni Research Foundation, priority 2008, dated 2015)
# Several values for one entry are separate records, joined by “and”; a condition that tells them apart may be missing. Equal values may be shown once. Read-outs that look alike come from different tables or passages of the source. Marks after values point to notes of the source that are not given here.
# Key:
# [1] = molecular target: T1, Kv 1.4 K+ channel (Rattus norvegicus, UniProt P15385); assay: Whole cell patch clamp of Kv 1.4 K+ channel co-expressed with sigma-1 receptor in HEK-293 cells; format: cell-based; conditions: for average inhibition of Kv 1.4 K+ channel: concentrations up to 300 μM, HEK-293; for EC50: HEK-293 co-expressing sigma-1 receptor, read-out: EC50 for inhibition of the Kv 1.4 K+ channel
# T1 construct: expressed in transfected cells; host or cells: HEK-293, transient, pIRES KvS1R plus pEGFP
# Experimental: After transfection (36-48 hours), whole cell K^+ currents were recorded from GFP positive HEK cells under voltage clamp using standard patch clamp techniques, using patch pipettes filled with (in mM) 120 KCl, 10 NaCl, 10 EGTA, 2 MgCl2, 2-4 MgATP, 0.3 NaGTP, 10 HEPES, pH 7.3.
# The external solution was composed of (in mM) 130 NaCl, 4 KCl, 2 CaCl2, 1 MgCl2, 10 HEPES, pH 7.4 at room temperature (22-24° C.). Patch pipettes with resistances from 1-3 MΩ were fabricated from borosilicate glass (Garner Glass Co., CA). K^+ channels were activated by voltage step from −120 mV to 20 mV for 250 ms. Axopatch 200B, patch clamp amplifier interfaced to a PC running PCLAMP 7 (Axon Instruments) was used for data acquisition. Drugs were applied by a gravity feed system at a flow rate of 1-3 mL/minute. Series resistance compensation was used for cells with series resistance values higher than 10 MΩ. A 80-90% series resistance compensation was achieved on such cells.
# K^+ currents were recorded using whole cell patch clamp technique.
# [2] = molecular target: T2, purified sigma-1 receptor (Cavia porcellus, UniProt Q60492); assay: Competitive displacement of [3H]-(+)-pentazocine at the pure sigma-1 receptor; format: binding, guinea pig; conditions: read-out: Ki Pure σ-1R
# T2 construct: made in house; host or cells: E. coli BL21 DE3
# Experimental: A guinea pig sigma-1 receptor was purified as previously described (Ramachandran et al., Protein Expr. Purif., 2007. 51(2): 283-92). The pMal P2X plasmid (New England Biolabs) encoding the guinea pig sigma-1 receptor on the C-terminus of the E. coli Maltose Binding Protein was used for purification. The sigma-1 receptor on its C-terminus carried a hexa-histadine epitope tag. Protein was expressed in the E. coli strain BL21 DE3 (Novagen) with 0.6 mM IPTG. The E. coli pellet was sonicated and centrifuged at 100,000 g for 1 hour to separate the particulate and soluble fractions. The particulate fraction was extracted with Triton X-100, centrifuged and the extract was loaded onto an amylose resin (New England Biolabs, E-802). After washing the resin with buffer containing 0.5% Triton X-100, the MBP-sigma-1 receptor fusion protein was eluted with buffer containing 10 mM maltose.
# The MBP-sigma-1-receptor fusion protein was cleaved with Factor Xa protease (Novagen) at room temperature for 24-48 hours and the cleavage was monitored with SDS-polyacrylamide gel electrophoresis. The sigma-1 receptor from the Factor Xa cleavage was purified with a HIS-Select HC Nickel affinity gel (Sigma-Aldrich P6611) in a batch format. The resin was washed with buffer containing 0.5% Triton X-100 detergent and the beads were separated by a brief centrifugation at 4000 rpm in a microcentrifuge. After washing to remove MBP, the pure sigma-1 receptor was eluted in buffer containing 250 mM imidazole.
# To remove the undigested MBP-sigma-1 receptor fusion protein that is carried over in the Ni^2+ purification, the eluate from the Ni^2+ purification was incubated with Anti-MBP antibody conjugated to agarose (Vector Laboratories, Burlingame, Calif.) at 4° C. for 18-24 hours. The beads were separated by centrifugation and the supernatant contained the pure sigma-1 receptor.
# Competition ligand binding to the pure sigma-1 receptor was performed as previously described. […] After incubation at 30° C. for 60 minutes, the reaction was terminated by rapid filtration through glass fiber filters (Whatman GF/B), using a Brandel cell harvester (Brandel, Gaithersburg, Md.). The glass fiber filters were pre-soaked in 0.5% polyethyleneimine (PEI) for at least 1 hour at room temperature (˜23° C.). Filters were washed 4 times with 4 mL of ice-cold 50 mM Tris-C1, pH 8.0. Radioactivity was quantified by liquid scintillation counting using a Packard model 1600 CA scintillation counter.
# [3] = molecular target: T3, sigma-2 receptor (Rattus norvegicus, UniProt Q5U3Y7); assay: Sigma-2 competitive binding, [3H]-DTG with (+)-pentazocine, rat liver membranes (Example 6); set-up: from tissue; host or cells: rat liver membranes; conditions: rat liver membranes, n = 3; read-out: Sigma2 KD values
# T3 sequence (Q5U3Y7 1-176): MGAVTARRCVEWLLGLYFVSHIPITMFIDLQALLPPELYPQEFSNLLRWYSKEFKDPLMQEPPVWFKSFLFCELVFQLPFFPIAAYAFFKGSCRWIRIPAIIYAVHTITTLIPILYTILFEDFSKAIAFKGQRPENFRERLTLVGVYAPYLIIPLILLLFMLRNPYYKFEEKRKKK
# Experimental: (§3) Minced frozen rat livers or guinea pig livers (65 g) were thawed in 100 mL homogenization buffer (10 mM phosphate buffer pH 7.4 containing 0.32M sucrose, 1 M MgSO4, 0.5 M EGTA, 1 mM phenylmethylsulphonyl fluoride (PMSF), 10 μg/mlleupeptin, 1 μg/ml pepstatin A, 10 μg/ml p-toluenesulfonyl-L-arginine methyl ester (TAME) and then homogenized on ice with a Brinkman polytron homogenizer (setting 6, 4 bursts of 10 second each) followed by a glass homogenizer (Teflon pestle by 6 slow passes at 3,000 rpm). The homogenized tissues were then centrifuged at 17,000 g for 10 minutes. The supernatants were re-centrifuged at 100,000 g for 1 hour. The microsomal pellets were resuspended in homogenization buffer, snap frozen with dry ice-ethanol, and stored at −80° C. at a final protein concentration of 20 mg/mL.
# (§4) Assays for sigma-1 were performed using 10 nM (+)-[^3H]pentazocine in guinea pig liver homogenates (25 μg/well) incubated at 30° C. for 1 hour with several concentrations of competing ligands. After incubation, membranes were harvested on a 0.5% PEI-treated Whatman GF/B filters using a Brandel Cell Harvester. (+)-[^3H]pentazocine binding was determined by liquid scintillation counting. […] Serial concentrations of the compounds evaluated were added to the reactions for 45 minutes at 30° C. and the samples vacuum filtered through 0.5% polyethyleneimine (PEI) treated Whatman GF/B as described above to measure displacement of the radioligands from the sigma receptor subtypes.
# [4] = molecular target: T4, sigma-1 receptor (Cavia porcellus, UniProt Q60492); assay: Sigma-1 competitive binding, (+)-[3H]pentazocine, guinea pig liver membranes (Example 6); set-up: from tissue; host or cells: guinea pig liver membranes; conditions: for Kd: guinea pig liver membranes, n = 3, read-out: Sigma 1 KD values;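 for all read-outs here: compounds tested over serial concentrations, 45 min incubation at 30 °C with membrane preparations, read-out is displacement of bound radioligand from the receptor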
# Experimental: as §3, §4
# [5] = molecular target: T3, sigma-2 receptor; assay: Protection of [125I]IAF photolabeling of the sigma-2 receptor in rat liver membranes; format: binding; set-up: from tissue; host or cells: rat liver membranes
# Experimental: (§5) Rat liver membranes (100 μg/lane) were suspended in the presence or absence of the protecting drugs. […] Percent band intensities are shown compared to controls performed in the absence of protecting ligand (−).
# [6] = molecular target: T4, sigma-1 receptor; assay: Competition assay against (+)-[3H]-pentazocine, trace amines; format: binding; set-up: from tissue; conditions: for sigma-2/sigma-1 Kd ratio: sigma-2 KD / sigma-1 KD
# Experimental: (§1) Competitive binding assays were performed as previously described (18) with the exception of testing new ligands shown in Table 4.
# [7] = molecular target: T3, sigma-2 receptor; assay: Sigma-2 receptor competitive binding, trace amines; set-up: from tissue; host or cells: liver membranes (rat inferred)
# Experimental: as §1
# [8] = molecular target: T5, sigma-1 receptor (Rattus norvegicus, UniProt Q9R0C9); assay: Protection of [125I]-IACoc photolabeling in rat liver membranes; format: binding; conditions: even at 50 and 100 μM
# T5 construct: from tissue; host or cells: rat liver membranes
# Experimental: as §5
# [9] = molecular target: T6, σ-2 Sites (Rattus norvegicus, UniProt Q5U3Y7); assay: σ-2 sites radioligand binding, rat liver membranes (Table 2)
# T6 construct: from tissue
# T6 sequence (Q5U3Y7 1-176): T3 sequence (Q5U3Y7 1-176)
# Experimental: as §4
# [10] = molecular target: T7, σ-1 Sites (Cavia porcellus, UniProt Q60492); assay: σ-1 sites radioligand binding, guinea pig liver membranes (Table 2); conditions: for Ki: guinea pig liver membranes
# T7 construct: from tissue
# Experimental: as §4
# [11] = test system: MCF7; assay: Cytotoxicity assay MCF7; format: cell-based; conditions: Homo sapiens, HU Breast, read-out: IC50 (SE) growth inhibition
# Experimental: (§2) Multi-plex cytotoxicity assays were performed by the Keck-UWCCC Small Molecule Screening Facility (Madison, Wis.). Specific methodology can be found online at http://hts.wisc.edu/Resources.htm#mpa.
# [12] = test system: HCT-45; assay: Cytotoxicity assay HCT-45; format: cell-based; conditions: Homo sapiens, HU Colorectal, read-out: IC50 (SE) growth inhibition
# Experimental: as §2
# [13] = test system: HI299; assay: Cytotoxicity assay HI299; format: cell-based; conditions: Homo sapiens, HU Lung, read-out: IC50 (SE) growth inhibition
# Experimental: as §2
# [14] = test system: MCP10A; assay: Cytotoxicity assay MCP10A; format: cell-based; conditions: Homo sapiens, HU Breast, read-out: IC50 (SE) growth inhibition
# Experimental: as §2
# [15] = molecular target: T3, sigma-2 receptor; set-up: from tissue; host or cells: rat liver membranes; conditions: from Fontanilla et al. Biochemistry 2008; cited from earlier work
# [16] = test system: A549; assay: Cytotoxicity assay A549; format: cell-based; conditions: Homo sapiens, HU lung, read-out: IC50 (SE) growth inhibition
# Experimental: as §2
# [17] = molecular target: T4, sigma-1 receptor; set-up: from tissue; host or cells: guinea pig liver membranes; conditions: from Fontanilla et al. Biochemistry 2008; cited from earlier work
# [18] = test system: SKOV-3; assay: Cytotoxicity assay SKOV-3; format: cell-based; conditions: Homo sapiens, SK-OV-3, HU Ovarian, read-out: IC50 (SE) growth inhibition
# Experimental: as §2
# [19] = test system: SF268; assay: Cytotoxicity assay SF268; format: cell-based; conditions: Homo sapiens, SF-268, HU CNS, read-out: IC50 (SE) growth inhibition
# Experimental: as §2
# [20] = test system: Du145; assay: Cytotoxicity assay Du145; format: cell-based; conditions: Homo sapiens, DU-145, HU Prostate, read-out: IC50 (SE) growth inhibition
# Experimental: as §2
# [21] = test system: MB-MDA-231; assay: Cytotoxicity assay MB-MDA-231; format: cell-based; conditions: Homo sapiens, HU Breast, read-out: IC50 (SE) growth inhibition
# Experimental: as §2
# [22] = test system: NCI-H460; assay: Cytotoxicity assay NCI-H460; format: cell-based; conditions: Homo sapiens, HU lung, read-out: IC50 (SE) growth inhibition
# Experimental: as §2
# [23] = test system: HT-29; assay: Cytotoxicity assay HT-29; format: cell-based; conditions: Homo sapiens, HU Colorectal, read-out: IC50 (SE) growth inhibition
# Experimental: as §2
# [24] = test system: tumor cell lines; assay: Cytotoxicity assays, various tumor cell lines (statements in words); format: cell-based, human
# Experimental: Because sigma-1 receptors are overexpressed in numerous tumor cell lines, which include breast cancer, lung carcinoma, renal carcinoma, colon carcinoma, sarcoma, brain tumors, melanoma, glioblastoma, neuroblastoma, and prostate cancer, the ability of the compounds to inhibit the growth of various tumor cell lines were tested.
# as §2
# [25] = molecular target: sigma-1 receptor (Homo sapiens, UniProt Q99720); conditions: literature value; cited from earlier work
# [26] = test system: WT and sigma-1 receptor knockout mice; assay: Open-field hypermobility assay in WT and sigma-1 receptor KO mice; format: in vivo, mouse; conditions: WT and KO mice, 3 mg/kg i.p.
# Experimental: All mice were maintained on a normal light/dark cycle and handled in accordance with Animal Care and Use Guidelines of the University of Wisconsin, Madison. […] Mice were first acclimatized to the experimental room for one hour. WT and KO mice were injected with the monoamine oxidase inhibitor, pargyline (75 mg/kg, i.p.) two hours prior to DMT or vehicle injection(28). […] Each condition represents 8 to 14 mice (n=8-14). […] A computer program was used to quantitate movement and after each experiment, 70% ethanol was used to remove odors from the open-field.
# T1 sequence (Q9R0C9 whole entry partner): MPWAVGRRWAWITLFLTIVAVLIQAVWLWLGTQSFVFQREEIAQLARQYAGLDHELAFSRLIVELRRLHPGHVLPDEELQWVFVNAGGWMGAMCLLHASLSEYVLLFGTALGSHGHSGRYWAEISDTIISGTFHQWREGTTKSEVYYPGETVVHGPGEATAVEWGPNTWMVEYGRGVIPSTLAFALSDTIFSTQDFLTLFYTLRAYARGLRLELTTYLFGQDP
# T1 sequence (P15385 whole entry): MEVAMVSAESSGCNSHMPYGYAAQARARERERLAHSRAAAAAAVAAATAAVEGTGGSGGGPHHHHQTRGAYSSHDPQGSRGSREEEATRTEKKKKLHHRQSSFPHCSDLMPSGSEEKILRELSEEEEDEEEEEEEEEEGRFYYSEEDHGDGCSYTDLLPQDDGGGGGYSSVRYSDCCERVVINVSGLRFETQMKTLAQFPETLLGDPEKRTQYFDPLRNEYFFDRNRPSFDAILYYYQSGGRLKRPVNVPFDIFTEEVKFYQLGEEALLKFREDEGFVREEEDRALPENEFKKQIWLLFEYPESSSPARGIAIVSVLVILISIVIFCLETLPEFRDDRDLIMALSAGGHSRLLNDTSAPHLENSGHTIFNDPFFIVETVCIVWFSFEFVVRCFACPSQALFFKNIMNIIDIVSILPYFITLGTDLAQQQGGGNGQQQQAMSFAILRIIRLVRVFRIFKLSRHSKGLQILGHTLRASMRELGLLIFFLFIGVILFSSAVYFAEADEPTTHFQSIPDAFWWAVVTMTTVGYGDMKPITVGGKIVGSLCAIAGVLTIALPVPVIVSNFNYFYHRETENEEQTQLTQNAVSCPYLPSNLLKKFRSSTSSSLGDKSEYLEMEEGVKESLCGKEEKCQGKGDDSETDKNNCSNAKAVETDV
# T7 sequence (Q60492 whole entry): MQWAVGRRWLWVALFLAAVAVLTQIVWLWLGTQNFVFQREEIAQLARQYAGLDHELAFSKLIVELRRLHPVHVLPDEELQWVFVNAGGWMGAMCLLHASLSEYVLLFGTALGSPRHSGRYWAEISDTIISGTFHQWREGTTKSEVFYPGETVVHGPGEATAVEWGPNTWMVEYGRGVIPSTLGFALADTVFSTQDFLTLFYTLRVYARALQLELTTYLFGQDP
# T2 sequence (Q60492 whole entry): as above
# T4 sequence (Q60492 whole entry): as above
# T5 sequence (Q9R0C9 whole entry): as the sequence (Q9R0C9 whole entry partner) above
# sigma-1 receptor (Homo sapiens, UniProt Q99720), sequence (Q99720 whole entry, species assumed): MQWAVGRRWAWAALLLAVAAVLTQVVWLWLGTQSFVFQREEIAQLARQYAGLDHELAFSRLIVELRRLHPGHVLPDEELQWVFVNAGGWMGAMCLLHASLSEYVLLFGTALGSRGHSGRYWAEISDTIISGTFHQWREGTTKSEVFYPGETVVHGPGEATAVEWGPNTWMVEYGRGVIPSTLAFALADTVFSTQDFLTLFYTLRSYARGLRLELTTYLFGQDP
structure (smiles),measurement,setting,value
"CCCCN [Butylamine, reference compound]",average inhibition of Kv 1.4 K+ channel,[1],21%
same,Ki,[2]; [3H]-(+)-pentazocine 10 nM,477 ± 67.5 µM
"CCCNCCc1ccc([N+](=O)[O-])cc1 [Compound 7, N-propyl-N-3-(4-nitophenyl)-ethylamine]",Kd,[3],53.6 µM
same,Ratio (σ2/σ1),[4],23.8
same,melting point,,142 to 144 °C
NCCc1c[nH]c2ccccc12 [Tryptamine],protection of [125I]IAF sigma-2 receptor photolabeling,[5]; 10 μM,47%
same,protection of [125I]IAF sigma-2 receptor photolabeling,[5]; 50 μM,78%
same,protection of [125I]IAF sigma-2 receptor photolabeling,[5]; 100 μM,79%
same,Kd,[6],432 µM
same,Kd,[7]; read-out: Sigma-2R KD,4.91 µM
same,protection of sigma-1 receptor [125I]-IACoc photolabeling,[8],protected minimally
"CCCCCCCCN(CCCCCCCC)C(=O)CCc1ccc(F)cc1 [Compound 4, N,N-Dioctyl-3-(4-fluorophenyl)propionamide]",melting point,,190 to 193 °C
"CCCCNCCCc1ccccc1 [Compound 1a, N-(3-Phenylpropyl)butan-1-amine]",EC50,[1],50 µM
same,Ki,[9],0.153 µM
same,Ki,[2]; [3H]-(+)-pentazocine,0.205 ± 0.0185 µM
same,Ki,[10],0.073 µM
same,σ-1 selectivity σ-2 Ki/σ-1 Ki,[10]; σ-2 rat liver / σ-1 guinea pig liver membranes,2
CNCCc1ccccc1 [N-methylPEA],sigma-2/sigma-1 Kd ratio,[6],0.366
"CCCN(CCCc1ccc(F)cc1)CCc1ccc(N)cc1 [Compound 20, N-propyl-N-(4-aminophenyl-ethyl)-3-(4-fluorophenyl)propylamine]",IC50,[11],41.3 µM
same,IC50,[12],> 100 µM
same,IC50,[13],> 100 µM
same,IC50,[14],> 100 µM
same,Kd,[15],0.12 µM
same,IC50,[16],> 100 µM
same,Kd,[17],2.59 µM
same,Ratio (σ2/σ1),[17],0.046^c
same,IC50,[18],20.2 µM
same,IC50,[19],> 100 µM
same,IC50,[20],> 100 µM
same,IC50,[21],86.1 µM
same,IC50,[22],44.8 µM
same,IC50,[23],> 100 µM
"CNCCc1ccc(O)cc1 [N-methyltyramine, 4-(2-(methylamino)ethyl)phenol]",Kd,[7]; read-out: Sigma-2R KD,6.61 µM
"CCCCN(CCCC)C(=O)CCc1ccc(F)cc1 [Compound 5, N,N-Dibutyl-3-(4-fluorophenyl)propionamide]",Kd,[3],126 µM
same,Ratio (σ2/σ1),[4],3.94
same,Kd,[4],32.1 µM
same,melting point,,162 to 164 °C
NCCc1ccccc1 [Phenethylamine],Kd,[6],97.4 µM
same,Kd,[7],7.31 µM
CCCCCCCN [Heptylamine],average inhibition of Kv 1.4 K+ channel,[1],15%
same,Ki,[2]; [3H]-(+)-pentazocine 10 nM,21.4 µM and 21 µM
CNCCc1c[nH]c2ccccc12 [N-methyltryptamine],protection of sigma-1 receptor [125I]-IACoc photolabeling,[8],protected minimally
"CCCCCCCNCCCc1ccccc1 [Compound 1c, N-(3-Phenylpropyl)heptane-1-amine]",EC50,[1],10 µM
same,Ki,[9],0.033 µM
same,Ki,[2]; [3H]-(+)-pentazocine,0.0184 µM
same,Ki,[10],0.015 µM
"CCCCN(CCCC)CCCc1ccc([N+](=O)[O-])cc1 [Compound 11, N,N-Dibutyl-3-(4-nitrohenyl)propylamine]",IC50,[11],22.4 µM
same,IC50,[12],> 100 µM
same,IC50,[13],> 100 µM
same,IC50,[14],> 100 µM
same,Kd,[3],0.404 µM
same,Ratio (σ2/σ1),[4],1347
same,Kd,[4],0.0003 µM
same,IC50,[16],> 100 µM
same,IC50,[18],27.9 µM
same,IC50,[19],> 100 µM
same,IC50,[20],32.7 µM
same,IC50,[21],57.1 µM
same,cytotoxicity / tumor cell growth inhibition,[24],"robustly inhibits growth in MB-MDA231, MCF7, Du145, and NCI-H460 cell lines in addition to SKOV-3 cells"
same,IC50,[22],40.5 µM
same,IC50,[23],> 100 µM
"COC(=O)C1C(OC(=O)c2ccc(N=[N+]=[N-])c(I)c2)CC2CCC1N2C (centres unmarked) [[^125I]-IACoc, 3-[^125I]iodo-4-azidococaine]",Kd,[25],0.000126 µM
NCCc1ccc(O)cc1 [Tyramine],Kd,"[6]; (+)-[3H]-pentazocine 10 nM, read-out: Sigma-1R KD",> 30000 µM
CN[C@@H](C)Cc1ccccc1 [methamphetamine],hypermobility,[26],induced hypermobility in both WT and KO mice
"CN(C)CCc1ccccc1 [N,N′-dimethylPEA, N,N-dimethyl-2-phenylethylamine]",sigma-2/sigma-1 Kd ratio,[6],1.642
